Laboratory results taken from US6800672B2, “Biodegradable compositions comprising poly(cycloaliphatic phosphoester) compounds, articles, and methods for using the same” (Guilford Pharmaceuticals, Inc., priority 1997, dated 2004).
Several values for one entry are separate records, joined by “and”; a condition that tells them apart may be missing. Equal values may be shown once. Where a name gives a salt, the structure may show the parent alone. Read-outs that look alike come from different tables or passages of the source.

Legend:
[1] = system: melanoma cell line B16/F10 tumors
[2] = system: melanoma cell line B16/F10; test: Drug sensitivity in an in vitro tumor model; format: cell-based; conditions: vs cisplatin and 5-FU, even at 0.1 μg/mL
Description: The B16/F10 cells were cultivated in the presence of different concentrations of DOX, cisplatin and 5-FU.

## COc1cccc2c1C(=O)c1c(O)c3c(c(O)c1C2=O)C[C@@](O)(C(=O)CO)C[C@@H]3O[C@H]1C[C@H](N)[C@H](O)[C@H](C)O1 [Bolus Dox, doxorubicin hydrochloride]
[1]; mouse, in vivo
  Number of Mice Survived, 28 days: 8
  early death after injection: did not produce early death
[1]; mouse, in vivo, hydrochloride
  Number of Mice Survived, 42 days: 5 and 3
[1]; treatment injected Day 3 (3d)
  Tumor Volume After Tumor Injection, 28 days: 1218.9 ± 304.1 mm^3
  Tumor Volume After Tumor Injection, 42 days: 3942.5 ± 1818 mm^3
[1]; treatment injected Day 7 (7d)
  Tumor Volume After Tumor Injection, 28 days: 1661.2 ± 301.8 mm^3
  Tumor Volume After Tumor Injection, 42 days: 4394.3 ± 741.3 mm^3

## COc1cccc2c1C(=O)c1c(O)c3c(c(O)c1C2=O)C[C@@](O)(C(=O)CO)C[C@@H]3O[C@H]1C[C@H](N)[C@H](O)[C@H](C)O1 [DOX, doxorubicin]
[2]
  inhibitory effect on the cell culture: strongest inhibitory effect
